In US6313179A, “Treatment of hyperproliferative skin disorders with C18 to C20 aliphatic alcohols” (Avanir Pharmaceuticals, priority 1998, dated 2001):
“Also recorded” adds a separate entry of the source. Like-named read-outs stand apart in the source and are kept apart here.

How the values were obtained:
[1] = test system: keloid scarring; assay: Treatment of keloid scar formation with n-docosanol cream, case report (Example 4); format: in vivo, Human
From the text: The patient presented with a one year history of progressive bilateral facial keloid scarring. The precise cause of injury is unknown, but appears to have been initiated as a result of work-relatedexposure to some aerosolized irritant at a high rise building construction site. During the time of exposure, the patient was working in an area in which noxious fumes were known to exist, and they were wearing a filtration face mask for protection against inhalation exposure. Since the resulting wounds occurred in a pattern which appeared to outline the edges of the protective face mask, the injury may reflect some type of chemical burn resulting from concentration of aerosolized irritants with perspiration at the edge of the face mask.
During the ensuing year after onset of this process, the patient was seen on several occasions in the dermatology division of a major local hospital and attempts were made to arrest the process by intradermal steroid injections at the affected sites. This treatment approach was ineffective. When the patient was first seen by the inventors, they had extensive and disfiguring bilateral scars on the face and a large ulcerated lesion at the lower end of the process on the right side of the face. There was keloid scarring on both the right and left sides of the face manifested as typical "ropey and cord-like" tissue deposition and depigmentation. The right side of the face was noticeably swollen presumably as a result of the active ulceration process at the lower end of the lesions. The patient complained of pain along both areas of scarring, particularly at the more distal ends of the lesions. They admitted to social withdrawal as a result of embarrassment about their appearance and extreme frustration about the apparent futility of obtaining any help to arrest or reverse the process.
After thoroughly explaining the experimental aspects of the therapeutic regimen, the patient volunteered to enter a study in which cream containing either 15% or 10% n-docosanol as active ingredient was to be applied to the affected areas. These topical cream formulations are described in U.S. Pat. No. 5,534,554, the entire contents of which are incorporated by reference. Initially, applications of cream containing 15% n-docosanol were made three times daily. This cream formulation contained, in addition to 15% n-docosanol, […], 5.0% sucrose cocoate, 8.0% mineral oil NF, 5.0% propylene glycol USP, 2-ethyl-1,3-hexanediol and 58.3% purified water (all weight percent). After one month on this regimen, the patient was changed to cream containing 10% n-docosanol and the application frequency was reduced to two times daily, after showering in the morning and just before bed in the evening. This cream composition contained, in addition to 10% n-docosanol,5.0% sucrose stearates, 8.0% mineral oil NF, 5.0% propylene glycol USP, 2.7% benzyl alcohol NF and 69.3% purified water.

[2] = test system: Human keloid fibroblasts; assay: Antiproliferative activity of n-docosanol in keloid cells (Example 1, viable cell count); format: cell-based; conditions: 15 mM; for inhibition of keloid cell growth in vitro (in words): cultured keloid / hypertrophic fibroblasts; for activity at 15000 µM / cells/well: Table 1; for activity at 15000 µM: compared to cells incubated with no addition, read-out: % control
Procedure: (§1) Human keloid fibroblasts were obtained from the American Type Culture Collection (Rockville, Md.) (CRL 1762). n-Docosanol (300 mM) was suspended in the nonionic surfactant Pluronic F-68 (12 mM) as described previously (Katz et al., Proc. Natl. Acad. Sci. U.S.A., 88:10825-10829, 1991, hereby incorporated by reference). A vehicle control was prepared using the same procedure except n-docosanol was omitted. Keloid cells (2.7×10^4per well) were added to 16 mm wells containing DMEM supplemented with 10% fetal calf serum (FCS), sodium pyruvate, L-glutamine and penicillin/streptomycin. n-Docosanol (15 mM) or the corresponding Pluronic F-68 control (0.6 mM) was added (total volume=2.0 ml). Cells were harvested after incubation for 72 and 168 hours at 37° C. in a humidified 10% CO2 incubator. The number of viable cells was determined by trypan blue staining.

[3] = test system: Human fetal lung cells (HFL; ATCC CCL 153); assay: Comparison of n-docosanol effect between keloid and normal cells: human fetal lung cells (Example 2); format: cell-based; conditions: 15 mM; for activity at 15000 µM: Homo sapiens, compared to cells incubated with no addition, read-out: % control; for activity at 15000 µM / cells/well: Table 3
Procedure: as §1
Human fetal lung cells (HFL; ATCC CCL 153) and keloid cells (5×10^4 cells/well) were separately added to 16 mm wells and treated as described in Example 1. The results are shown in Tables 2 (keloid cells) and 3 (human fetal lung cells).

[4] = test system: herpes simplex virus; conditions: suspended in a surfactant; cell culture assays; cited from earlier work
[5] = test system: Human keloid fibroblasts; assay: Radiolabeled n-docosanol binding to keloid cells (Example 3); format: cell-based; conditions: 24 hours
Procedure: (§2) Human keloid fibroblasts, normal control skin fibroblasts and Vero cells were obtained from ATCC. n-Docosanol (30 mM) was suspended in Pluronic F-68 (1.2 mM) as described previously (Katz et al., ibid). A vehicle control was prepared using the same procedure except for the omission of n-docosanol. Radiolabeled n-[1-^14 C] docosanol suspension was prepared as described by Katz et al. (ibid.). Cells were resuspended in 1.2×10^6 cells/ml in DMEM supplemented with 10% fetal calf serum, sodium pyruvate, L-glutamine and penicillin-streptomycin. Cell suspension (0.5 ml) was added to each 35 mm well containing 1.3 ml media, followed by addition of 0.2 ml radiolabeled n-docosanol suspension (final n-docosanol concentration=3 mM). After 24 hours at 37° C. in humidified 10% CO2, the suspension was removed, wells were washed extensively with saline and cells were solubilized for scintillation counting by incubation with 0.5 ml trypsin for 15 min at 37° C. Solubilized cells were counted in a Beckman LS6000 scintillation counter. Samples were corrected for nonspecific binding to plates by subtracting values obtained in control wells lacking cells. To determine cell number, duplicate plates were treated with non-radiolabeled n-docosanol or control suspension at the same concentration or were left untreated. The number of viable cells was determined by trypan blue staining.

[6] = test system: Human keloid fibroblasts; assay: Proliferation study, keloid cells (Example 3); format: cell-based; conditions: 3 mM
Procedure: as §2

[7] = test system: Vero (normal African green monkey kidney; ATCC CCL 81) cells; assay: Proliferation study, Vero cells (Example 3); format: cell-based; conditions: 3 mM
Procedure: The following experiment examined the effect of n-docosanol on cell proliferation and quantitation of n-[1-^14 C]docosanol binding to keloid, Vero (normal African green monkey kidney; ATCC CCL 81) and normal skin fibroblast (ATCC CRL 1900) cells.
as §2

[8] = 15% cream three times daily, within 48 hours
[9] = 15% cream, by the end of the second week, patient perception

CCCCCCCCCCCCCCCCCCCCCCO [n-docosanol]
extent of elevation of the keloid scarring ([1]; 15% cream one month, then 10% cream twice daily, three months): clear reduction in the extent of elevation of the keloid scarring | pain around the lesions ([1]; 15% cream three times daily, almost immediately after onset of therapy): significant diminution in pain | granulation within the ulcerated lesion [1, 8]: onset of granulation | swelling on the right side of the face [1, 8]: significant reduction in swelling | suppleness of the overlying dermis [1, 9]: greater suppleness of the overlying dermis | tightness and thickness of the keloids [1, 9]: diminution in tightness and thickness of the keloids | pigmentation in the affected areas ([1]; 15% then 10% cream, one year): almost complete return to normal pigmentation | ropey and cord-like elevations ([1]; 15% then 10% cream, one year): a flattening of the previously ropey and cord-like elevations | scar tissue ([1]; 15% then 10% cream, one year): significant reduction of scar tissue | skin pigmentation ([1]; 15% then 10% cream, three months): considerable improvement in skin pigmentation | scar defect at the site of the healed ulcerated lesion ([1]; 15% then 10% cream, three months, compared to right temple line scar): much smaller scar defect | adverse reactions ([1]; during the course of treatment): no adverse reactions | keloid formation in a patient (in words) ([1]; patient for whom other treatments had not been successful): significantly reduced hyperproliferative keloid formation | inhibition of keloid cell growth in vitro (in words) [2]: favored by low cell densities and longer incubation times and is concentration-dependent; also recorded: dramatic inhibition of keloid cell growth | inhibition of keloid cell growth in vitro (in words) ([2]; listed as n-Docosanol): exhibits antiproliferative activity against cultured hypertrophic fibroblasts | inhibition at 15000 µM ([2]; Homo sapiens, Fibroblast, 168 hours, compared to no addition, read-out: inhibition of cell growth): 76% | activity at 15000 µM ([2]; Homo sapiens, Fibroblast, 72 hours): 103% | activity at 15000 µM ([2]; Homo sapiens, Fibroblast, 168 hours): 24% | cells/well ([2]; 72 hours): 3.3 × 10^4 cells/well | cells/well ([2]; 168 hours): 1.0 × 10^4 cells/well | number of human fetal lung cells (in words) ([3]; at both time intervals (72 and 168 hours)): significantly increased | activity at 15000 µM ([3]; 72 hours): 116% | activity at 15000 µM ([3]; 168 hours): 250% | cells/well ([3]; 72 hours): 5.8 × 10^4 cells/well | cells/well ([3]; 168 hours): 20 × 10^4 cells/well | antiviral activity [4]: potent antiviral activity | amount of radiolabeled n-docosanol bound to keloid as compared to CRL 1900 cells ([5]; 3 mM, vs CRL 1900): About three | Binding per 10^6 cells ([5]; Table 4, Keloid, n-[1-14C]docosanol 3 mM): 45.5 μg | inhibition at 3000 µM ([6]; Homo sapiens, Fibroblast, 24 h, one day incubation, read-out: reduction of number of keloid cells): 57% | activity at 3000 µM ([6]; Homo sapiens, Fibroblast, Table 4, Keloid, 24 hours, compared to cells incubated with no addition, read-out: % ctrl): 43% | No. cells ([6]; Table 4, Keloid, 24 hours): 1.6 × 10^5 cells | number of Vero cells (in words) ([7]; one day incubation): not decreased | activity at 3000 µM ([7]; Chlorocebus sabaeus, Table 4, Vero, 24 hours, compared to cells incubated with no addition, read-out: % ctrl): 151% | No. cells ([7]; Table 4, Vero, 24 hours): 5.9 × 10^5 cells
